Among the data in EP2771349B1, “BIO[…] FOR DETERMINATION OF PEPTIDE BINDING” (Iogenetics, LLC., priority 2011, dated 2013) are Prin1, Prin2 and Prin3 values, retold here.

The series is described as follows: Principal components analysis of amino acid physical properties from 31 studies. As to conditions: for Prin1: first principal component, index of amino acid polarity or hydrophobicity, most hydrophobic highest; for Prin2: second principal component, related to size or volume, smallest has highest score; for Prin3: third principal component. From the text:
In some cases, principal components of amino acids are utilized to accurately predict binding affinities of sub-sequences of amino acids within the proteins to all MHC-I and MHC-II receptors. Principal Components Analysis is a mathematical process that is used in many different scientific fields and which reduces the dimensionality of a set of data. (Bishop, C.M., Neural Networks for Pattern Recognition. Oxford University Press, Oxford 1995. Bouland, H. and Kamp,Y., Biological Cybernetics 1988. 59: 291-294.). Derivation of principal components is a linear transformation that locates directions of maximum variance in the original input data, and rotates the data along these axes. Typically, the first several principal components contain the most information. Principal components is particularly useful for large datasets with many different variables. Using principal components provides a way to picture the structure of the data as completely as possible by using as few variables as possible. For n original variables, n principal components are formed as follows: The first principal component is the linear combination of the standardized original variables that has the greatest possible variance. Each subsequent principal component is the linear combination of the standardized original variables that has the greatest possible variance and is uncorrelated with all previously defined components. Further, the principal components are scale-independent in that they can be developed from different types of measurements. For example, datasets from HPLC retention times (time units) or atomic radii ([…]) can be consolidated to produce principal components. Another characteristic is that principal components are weighted appropriately for their respective contributions to the response and one common use of principal components is to develop appropriate weightings for regression parameters in multivariate regression analysis. Outside the field of immunology, principal components analysis (PCA) is most widely used in regression analysis. Initial tests were conducted using the principal components in a multiple regression partial least squares (PLS) approach (Wold, S., Sjorstrom,M., and Eriksson,L., Chemometrics and Intelligent Laboratory Systems 2001. 58: 109-130.). Principal component analysis can be represented in a linear network. PCA can often extract a very small number of components from quite high-dimensional original data and still retain the important structure.
Accordingly, in some cases physical properties of amino acids are used for subsequent analysis. The compiled physical properties are available at a proteomics resource website (expasy.org/tools/protscale.html). In some cases, the data for each of the 20 different amino acids from these studies are tabulated, resulting in 20 x 31 different datapoints, each providing a unique estimate of a physical characteristic of that amino acid. The power of principal component analysis lies in the fact that the results of all of these studies can be combined to produce a set of mathematical properties of the amino acids which have been derived by a wide array of independent methodologies. The patterns derived in this way are similar to those of Wold et. al. but the absolute numbers are different. The physicochemical properties derived in the studies used for this calculation are shown in (Table 2). […] All subsequent work described herein is based on use of the first three principal components.
From this it can be seen that the first principal component (Prin1) is an index of amino acid polarity or hydrophobicity; the most hydrophobic amino acids have the highest numerical value. The second principal component (Prin2) is related to the size or volume of the amino acid, with the smallest having the highest score. […]

`O=C(O)C1CCCN1` (stereo not drawn) [P]: the Prin1 is -0.03, the Prin2 is on record as -0.36 and the Prin3 is 1.87.

As for `NC(=O)CCC(N)C(=O)O` (stereo not drawn) [Q], the Prin1 is on record as -3.97, the Prin2 is recorded as -0.47 and the Prin3 was 0.15.

With `NC(CCC(=O)O)C(=O)O` (stereo not drawn) [E], the Prin1 is listed as -5.70, the Prin2 came out at 0.34 and the Prin3 is recorded as -1.46.

With `CC(O)C(N)C(=O)O` (stereo not drawn) [T], the Prin1 is -1.42, the Prin2 came out at 0.80 and the Prin3 came out at 0.94.

For `CC(N)C(=O)O` (stereo not drawn) [A], the Prin1 was determined as 0.72, the Prin2 turned out to be 2.48 and the Prin3 is recorded as 1.42.

Turning to `N=C(N)NCCCC(N)C(=O)O` (stereo not drawn) [R], the Prin1 is reported as -6.30, the Prin2 is reported as -2.93 and the Prin3 is on record as -0.91.

On to `NC(=O)CC(N)C(=O)O` (stereo not drawn) [N], for which the Prin1 was -4.35, the Prin2 stood at 0.21 and the Prin3 was determined as 0.30.

Regarding `NC(Cc1c[nH]cn1)C(=O)O` (stereo not drawn) [H], the Prin1 was -2.55, the Prin2 is reported as -1.00 and the Prin3 was -1.94.

Turning to `NC(CC(=O)O)C(=O)O` (stereo not drawn) [D], the Prin1 is -6.04, the Prin2 amounted to 0.03 and the Prin3 is on record as -0.18.

In the case of `NCCCCC(N)C(=O)O` (stereo not drawn) [K], the Prin1 is -6.68, the Prin2 is given as -1.32 and the Prin3 stood at 1.16.

On to `NCC(=O)O` [G], for which the Prin1 is -0.76, the Prin2 came out at 3.08 and the Prin3 is on record as 1.21.
